Structures can show the parent of a compound that is named as a salt. Where two headings read alike, the source gives them in different places.
Legend:
[1] = tested on: NIH3T3 fibroblasts; experiment: Peroxidation of membrane lipids, MDA by TBA method; format: cell-based, mouse; conditions: FW = fresh weight
Experimental: A typical symptom associated with aging is the direct consequence of increased concentrations of reactive oxygen species and lipid peroxidation. […] MDA levels were measured using thiobarbituric acid (TBA method). […] The crude extract was centrifuged at 10,000×g for 5 minutes and 100 μl aliquots of the supernatant were mixed with 100 μl of 0.5% (w/v) TBA containing 0.1% (w/v) trichloroacetic acid. The resulting solution was then incubated for 30 min at 95° C. The samples were rapidly cooled on ice and centrifuged for 5 minutes at 1000×g. […] The newly prepared derivatives of the general formula thus have a protective function against the negative effects of reactive oxygen species that accumulate strongly in the tissues.

[2] = tested on: B10A.4
[3] = tested on: BJ (human foreskin fibroblasts)
Description: (§1) One of the parameters used, as the basis for cytotoxicity assays, is the metabolic activity of viable cells. For example, a microtiter assay, which uses the Calcein AM, is now widely used to quantitate cell proliferation and cytotoxicity. […] Because only metabolically active cells cleave Calcein AM, these assays detect viable cells exclusively. The quantity of reduced Calcein AM corresponds to the number of vital cells in the culture.
(§2) Mouse fibroblasts NIH3T3; mouse immortalized bone marrow macrophages B2.4 and B10A.4, and BJ (human foreskin fibroblasts) were used for routine screening of compounds. The cells were maintained in Nunc/Corning 80 cm^2 plastic tissue culture flasks and cultured in cell culture medium (DMEM with 5 g/l glucose, 2 mM glutamine, 100 U/ml penicillin, 100 μg/ml streptomycin, 10% fetal calf serum and sodium bicarbonate).
(§3) The cell suspensions that were prepared and diluted according to the particular cell type and the expected target cell density (2.500-30.000 cells per well based on cell growth characteristics) were added by pipette (80 μl) into 96/well microtiter plates. Inoculates were allowed a pre-incubation period of 24 hours at 37° C. and 5% CO2 for stabilisation. Four-fold dilutions of the intended test concentration were added at time zero in 20 μl aliquots to the microtiter plate wells. Usually, the compound tested was evaluated at six 4-fold dilutions. […] All compound concentrations were examined in duplicates. Incubations of cells with the tested compounds lasted for 72 hours at 37° C., in 5% CO2 atmosphere and 100% humidity. At the end of the incubation period, the cells were assayed by using Calcein AM. Ten microliters of the stock solution were pipetted into each well and incubated for 1 hour. Fluorescence (FD) was measured with the Labsystem FIA Reader Fluoroscan Ascent (UK).

[4] = tested on: NIH-3T3
Description: as §1, §2, §3

[5] = Radical scavenging activity determined by ORAC; conditions: relative to trolox; Mean ± SD (n = 3)
Experimental: The ability of compounds to scavenge free radicals in vitro was determined by Oxygen Radical Absorbance Capacity (ORAC) method. In brief, fluorescein (100 μl, […]) and 25 μl of compound solution were added into each working well in a 96-well microplate preincubated at 37° C. Thereafter, 25 μL of 250 mM AAPH was quickly added, microplate was shaken for 5 s and the fluorescence (Ex. 485 nm, Em. 510 nm) was read every 3 min over 90 min by using microplate reader Infinite 200 (TECAN, Switzerland). The net area under the curve was used to express antioxidant activity relative to trolox which was used as a standard.

[6] = Calcein AM cytotoxicity, BJ; conditions: human, BJ foreskin fibroblasts
Description: as §1, §2, §3

[7] = Calcein AM cytotoxicity, NIH-3T3; conditions: mouse, NIH-3T3 fibroblasts
Description: as §1, §2, §3

[8] = Calcein AM cytotoxicity, B10A.4 (first column); conditions: mouse, B10A.4 immortalized bone marrow macrophages
[9] = tested on: BJ (human foreskin fibroblasts); experiment: Calcein AM cytotoxicity, BJ; conditions: read-out: Cytotoxicity IC50, BJ; 72 hours incubation, Calcein AM; highest concentration […]
Description: as §1, §2, §3

[10] = tested on: NIH-3T3; experiment: Calcein AM cytotoxicity, NIH-3T3; conditions: read-out: Cytotoxicity IC50, NIH-3T3; 72 hours incubation, Calcein AM; highest concentration […]
Description: as §1, §2, §3

[11] = tested on: B10A.4; experiment: Calcein AM cytotoxicity, B10A.4 (first column); conditions: read-out: Cytotoxicity IC50, B10A.4; 72 hours incubation, Calcein AM; highest concentration […]
[12] = tested on: Rabbits (New Zealand Albino breed); conditions: New Zealand Albino, rabbit, in vivo, 4 h
Experimental: The test substance 114 was tested in Animal skin irritation test. Rabbits (New Zealand Albino breed) were used for the test. The test was performed according to ČSN EN ISO 10993 (Březen 2014): Biologické hodnoceni zdravotnických prostředků—část 10: Zkoušky dráždivosti a senzibilizace kůže, článek 6.3 Zkouška dráždivosti na zviřatech (Biological evaluation of medical devices—Part 10: Tests for irritation and delayed-type hypersensitivity). A dose 0.5 g of the test substance was applied to the skin of the back on each side of each rabbit. […] At first the one rabbit (test animal. No. 16) was used. Two other rabbits (rabbit No. 17 and No. 18) were used in confirmatory test. At the end of the contact time (4 hours) the dressings were removed and animals were examined for signs of erythema and oedema, and the response was evaluated at 1, 24, 48 and 72 hours afterpatches removal.

Question: Which results are given for CCN(CC)c1nc(NCC=C(C)C)c2ncn(C3CCCO3)c2n1 (stereo not shown) [Compound 93]?
Answer: MDA [1]: 10.5 nmol/g FW; IC50 [2]: > 167 µM; IC50 [3]: > 167 µM; IC50 [4]: > 167 µM

Question: What does the source list for C/C(=C\CNc1nc(NCCN(C)C)nc2c1ncn2C1CCCO1)CO (stereo not shown) [Compound 99]?
Answer: MDA [1]: 10.2 nmol/g FW; IC50 [2]: > 167 µM; IC50 [3]: > 167 µM; IC50 [4]: > 167 µM

Question: What does the source list for CCNc1nc(NC/C=C(/C)CO)c2ncn(C3CCCO3)c2n1 (stereo not shown) [Compound 101]?
Answer: MDA [1]: 10.6 nmol/g FW; IC50 [2]: > 167 µM; IC50 [3]: > 167 µM; IC50 [4]: > 167 µM

Question: Which results are given for CCN(CC)c1nc(NC/C=C(/C)CO)c2ncn(C3CCCO3)c2n1 (stereo not shown) [Compound 103]?
Answer: MDA [1]: 10.1 nmol/g FW; IC50 [2]: > 167 µM; IC50 [3]: > 167 µM; IC50 [4]: > 167 µM

Question: With C/C(=C/CNc1nc(NCCN(C)C)nc2c1ncn2C1CCCO1)CO (stereo not shown) [Compound 104] as the compound, how does the MDA [1] read?
Answer: 9.6 nmol/g FW

Question: And the IC50 [2]?
Answer: > 167 µM

Question: And the IC50 [3]?
Answer: > 167 µM

Question: What about the IC50 [4] of the same compound?
Answer: > 167 µM

Question: Which results are given for CNc1nc(NCCC(C)CO)c2ncn(C3CCCO3)c2n1 (stereo not shown) [Compound 105]?
Answer: MDA [1]: 10.6 nmol/g FW; IC50 [2]: > 167 µM; IC50 [3]: > 167 µM; IC50 [4]: > 167 µM

Question: For CC(CO)CCNc1nc(N(C)C)nc2c1ncn2C1CCCO1 (stereo not shown) [Compound 107], which MDA [1] is on record?
Answer: 10.3 nmol/g FW

Question: What about the IC50 [2] of the same compound?
Answer: > 167 µM

Question: And the IC50 [3]?
Answer: > 167 µM

Question: What about the IC50 [4] of the same compound?
Answer: > 167 µM

Question: Which results are given for CCN(CC)c1nc(NCCC(C)CO)c2ncn(C3CCCO3)c2n1 (stereo not shown) [Compound 108]?
Answer: MDA [1]: 9.7 nmol/g FW; IC50 [2]: > 167 µM; IC50 [3]: > 167 µM; IC50 [4]: > 167 µM

Question: With CNc1nc(NCc2ccco2)c2ncn(C3CCCCO3)c2n1 (stereo not shown) [Compound 110, 2-(Methylamino)-6-furfurylamino-9-(tetrahydro-2H-pyran-2-yl)-9H-purine] as the compound, how does the “ORAC (compound/trolox)” value [5] read?
Answer: 0.205 ± 0.032

Question: Which MDA [1] does the source give for CCNc1nc(NCc2ccco2)c2ncn(C3CCCCO3)c2n1 (stereo not shown) [Compound 111, 2-(ethylamino)-6-furfurylamino-9-(tetrahydro-2H-pyran-2-yl)-9H-purine] here?
Answer: 10.3 nmol/g FW

Question: What about the IC50 at 72 h [6] of the same compound?
Answer: > 167 µM

Question: What about the IC50 at 72 h [7] of the same compound?
Answer: > 167 µM

Question: And the IC50 at 72 h [8]?
Answer: > 167 µM

Question: Which results are given for CCNc1nc(NCc2occc2C)c2ncn(C3CCCCO3)c2n1 (stereo not shown) [Compound 119]?
Answer: MDA [1]: 9.7 nmol/g FW; IC50 [9]: > 167 µM; IC50 [10]: > 167 µM; IC50 [11]: > 167 µM

Question: Which MDA [1] does the source give for Cc1coc(CNc2nc(NCCN(C)C)nc3c2ncn3C2CCCCO2)c1 (stereo not shown) [Compound 127] here?
Answer: 10.4 nmol/g FW

Question: And the IC50 [9]?
Answer: > 167 µM

Question: And the IC50 [10]?
Answer: > 167 µM

Question: What about the IC50 [11] of the same compound?
Answer: > 167 µM

Question: For CNc1nc(NCc2ccc(C)o2)c2ncn(C3CCCCO3)c2n1 (stereo not shown) [Compound 128, 2-(Methylamino)-6-[(5-methylfurfuryl)amino]-9-(tetrahydro-2H-pyran-2-yl)-9H-purine], which “ORAC (compound/trolox)” value [5] is on record?
Answer: 0.461 ± 0.003

Question: For Cc1ccc(CNc2nc(NCCN(C)C)nc3c2ncn3C2CCCCO2)o1 (stereo not shown) [Compound 132], which MDA [1] is on record?
Answer: 10.7 nmol/g FW

Question: And the IC50 [9]?
Answer: > 167 µM

Question: And the IC50 [10]?
Answer: > 167 µM

Question: And the IC50 [11]?
Answer: > 167 µM

Question: For CN(C)c1nc(NCc2cccc(O)c2)c2ncn(C3CCCCO3)c2n1 (stereo not shown) [Compound 155, 2-(Dimethylamino)-6-[(3-hydroxybenzyl)amino]-9-(tetrahydro-2H-pyran-2-yl)-9H-purine], which “ORAC (compound/trolox)” value [5] is on record?
Answer: 2.422 ± 0.107

Question: With CN(C)c1nc(NCc2ccc(O)cc2)c2ncn(C3CCCCO3)c2n1 (stereo not shown) [Compound 160, 2-(Dimethylamino)-6-[(4-hydroxybenzyl)amino]-9-(tetrahydro-2H-pyran-2-yl)-9H-purine] as the compound, how does the “ORAC (compound/trolox)” value [5] read?
Answer: 0.728 ± 0.016

Question: Which “Primary Irritation Index” value [12] does the source give for CCCCCCCCCCCCOS(=O)(=O)O [lauryl sulfate, reference compound] here?
Answer: 1.67

Question: Which results are given for Oc1ccccc1CNc1ncnc2nc[nH]c12 [ortho-topolin, reference compound]?
Answer: IC50 [3]: 108 µM; IC50 [4]: 94.1 µM

Reference: US11643413B2, “9-(2-oxacycloalkyl)-9H-purine-2,6-diamine derivatives and their use for the treatment of skin disorders” (UNIVERZITA PALACKEHO V OLOMOUCI, priority 2017, dated 2023)
